According to ChEMBL document CHEMBL5729675, “Sulfonamide compound or salt thereof” (2023):

Biological target: Ribonucleotide reductase (Homo sapiens, UniProt P23921+Q7LG56)
Assay: Human RNR Inhibition Effect: The inhibitory activity against the ribonucleotide reduction reaction (hereinafter referred to as RNR reaction) of the test compound was determined by measuring the formation of deoxycytidine diphosphate (hereinafter referred to as dCDP) from cytidine diphosphate (hereinafter referred to as CDP) by the following method.Human M1 subunit and human M2 subunit (mutant …

Chain of Ribonucleotide reductase (P23921 whole entry, looked up): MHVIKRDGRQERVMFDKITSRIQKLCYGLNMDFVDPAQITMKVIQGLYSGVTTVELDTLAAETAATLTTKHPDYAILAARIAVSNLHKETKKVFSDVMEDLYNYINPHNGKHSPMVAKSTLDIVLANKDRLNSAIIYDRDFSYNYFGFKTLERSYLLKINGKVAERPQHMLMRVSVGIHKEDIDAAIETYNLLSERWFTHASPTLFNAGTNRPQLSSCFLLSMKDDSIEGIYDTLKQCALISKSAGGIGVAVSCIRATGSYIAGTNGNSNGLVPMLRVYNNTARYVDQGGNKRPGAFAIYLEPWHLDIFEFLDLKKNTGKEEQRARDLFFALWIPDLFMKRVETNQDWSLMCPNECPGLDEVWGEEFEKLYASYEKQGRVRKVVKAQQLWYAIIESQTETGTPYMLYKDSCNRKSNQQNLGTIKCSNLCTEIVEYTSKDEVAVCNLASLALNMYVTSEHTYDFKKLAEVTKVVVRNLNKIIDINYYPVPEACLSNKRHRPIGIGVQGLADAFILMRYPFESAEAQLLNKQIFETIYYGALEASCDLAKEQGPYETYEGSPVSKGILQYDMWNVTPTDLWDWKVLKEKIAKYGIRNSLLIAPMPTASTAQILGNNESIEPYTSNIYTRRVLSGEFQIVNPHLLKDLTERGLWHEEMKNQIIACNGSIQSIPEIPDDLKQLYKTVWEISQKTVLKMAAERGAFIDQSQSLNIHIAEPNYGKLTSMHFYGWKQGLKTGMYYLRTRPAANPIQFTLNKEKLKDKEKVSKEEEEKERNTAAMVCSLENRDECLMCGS
Chain of Ribonucleotide reductase (Q7LG56 whole entry, looked up): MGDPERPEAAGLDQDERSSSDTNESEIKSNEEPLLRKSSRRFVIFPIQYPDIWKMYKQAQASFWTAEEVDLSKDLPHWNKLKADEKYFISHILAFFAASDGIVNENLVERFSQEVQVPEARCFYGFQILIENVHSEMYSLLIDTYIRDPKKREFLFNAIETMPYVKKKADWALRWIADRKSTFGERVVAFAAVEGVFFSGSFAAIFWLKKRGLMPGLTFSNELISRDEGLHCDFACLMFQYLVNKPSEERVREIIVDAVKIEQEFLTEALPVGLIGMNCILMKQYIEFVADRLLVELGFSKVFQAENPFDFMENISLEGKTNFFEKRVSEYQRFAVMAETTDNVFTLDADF

Row | SMILES | IC50
1 | Cc1ccc(F)c([C@@H](C)[C@H](NS(=O)(=O)c2ccc3c(c2)C(C)(O)CCC3)c2n[nH]c(=O)o2)c1C (some centres undefined) | 360 nM
2 | CC(O)c1nc(S(=O)(=O)N[C@H](c2n[nH]c(=O)o2)[C@H](C)c2cccc3c2CCC3)ccc1Cl (some centres undefined) | 400 nM
3 | Cc1ccc(F)c([C@@H](C)[C@H](NS(=O)(=O)c2ccc3c(c2)CCCO3)c2n[nH]c(=O)o2)c1C | 320 nM
4 | Cc1ccc(F)c([C@@H](C)[C@H](NS(=O)(=O)c2ncc(Br)cc2C(=O)O)c2n[nH]c(=O)o2)c1C | 990 nM
5 | Cc1cccc2cccc([C@@H](C)[C@H](NS(=O)(=O)c3ccc(Cl)c4c3OCCC4O)c3n[nH]c(=O)o3)c12 (some centres undefined) | 230 nM
6 | Cc1ccc(F)c([C@@H](C)[C@H](NS(=O)(=O)c2ccc(Cl)c(C(C)(C)O)n2)c2n[nH]c(=O)o2)c1C | 90 nM
7 | Cc1ccc(F)c([C@@H](C)[C@H](NS(=O)(=O)c2ccc3[nH]ncc3c2)c2n[nH]c(=O)o2)c1C | 410 nM
8 | Cc1ccc(F)c([C@@H](C)[C@H](NS(=O)(=O)c2ccc(Cl)c(C(=O)O)n2)c2n[nH]c(=O)o2)c1C | 190 nM
9 | Cc1ccc(F)c([C@@H](C)[C@H](NS(=O)(=O)c2ccc(Cl)cc2OCC(F)F)c2n[nH]c(=O)o2)c1C | 440 nM
10 | CC(O)c1c(Cl)ccc(S(=O)(=O)N[C@H](c2n[nH]c(=O)o2)[C@H](C)c2cccc3c2CCC3)c1Cl (some centres undefined) | 170 nM
11 | Cc1ccc(F)c([C@@H](C)[C@H](NS(=O)(=O)c2cccc3c2OCCO3)c2n[nH]c(=O)o2)c1C | 330 nM
12 | Cc1ccc(F)c([C@@H](C)[C@H](NS(=O)(=O)c2ccc3[nH]nnc3c2)c2n[nH]c(=O)o2)c1C | 660 nM
13 | Cc1ccc(F)c([C@@H](C)[C@H](NS(=O)(=O)c2ncc(Cl)cc2C(N)=O)c2n[nH]c(=O)o2)c1C | 40 nM
14 | Cc1ccc(F)c([C@@H](C)[C@H](NS(=O)(=O)c2ccc(Cl)c(C(=O)N3CCC4(COC4)C3)n2)c2n[nH]c(=O)o2)c1C | 130 nM
15 | C[C@H](c1cccc2c1CCC2)[C@H](NS(=O)(=O)c1ccc(F)c(C(C)(C)O)c1F)c1n[nH]c(=O)o1 | 550 nM
16 | Cc1ccc(F)c([C@@H](C)[C@H](NS(=O)(=O)c2ccc3c(c2)C(=O)CCC3)c2n[nH]c(=O)o2)c1C | 350 nM
17 | C[C@H](c1cccc2c1CCC2)[C@H](NS(=O)(=O)c1ccc(Br)c(C(C)(C)O)c1)c1n[nH]c(=O)o1 | 640 nM
18 | Cc1ccc(F)c([C@@H](C)[C@H](NS(=O)(=O)c2ccc3[nH]c(=O)[nH]c3c2)c2n[nH]c(=O)o2)c1C | 830 nM
19 | Cc1ccc(S(=O)(=O)N[C@H](c2n[nH]c(=O)o2)[C@H](C)c2c(F)ccc(C)c2C)cc1 | 410 nM
20 | Cc1ccc(F)c([C@@H](C)[C@H](NS(=O)(=O)c2c(F)cc(Cl)cc2C(=O)O)c2n[nH]c(=O)o2)c1C | 270 nM
21 | Cc1ccc(F)c([C@@H](C)[C@H](NS(=O)(=O)c2ccc(Cl)cc2C(=O)N(C)C)c2n[nH]c(=O)o2)c1C | 500 nM
22 | Cc1ccc(F)c([C@@H](C)[C@H](NS(=O)(=O)c2ccc3c(c2)CC(=O)N3)c2n[nH]c(=O)o2)c1C | 740 nM
23 | Cc1ccc(F)c([C@@H](C)[C@H](NS(=O)(=O)c2ccc(Cl)cc2C(C)O)c2n[nH]c(=O)o2)c1C (some centres undefined) | 380 nM
24 | Cc1ccc(F)c([C@@H](C)[C@H](NS(=O)(=O)c2ccc(F)c3c2OCCC3=O)c2n[nH]c(=O)o2)c1C | 160 nM
25 | Cc1ccc(F)c([C@@H](C)[C@H](NS(=O)(=O)c2ccc(F)c(C(C)(C)O)c2F)c2n[nH]c(=O)o2)c1C | 90 nM

Row | SMILES | IC50
26 | Cc1ccc(F)c([C@@H](C)[C@H](NS(=O)(=O)c2cc(C(C)(C)O)c(Cl)cc2C(N)=O)c2n[nH]c(=O)o2)c1C | 60 nM
27 | CC(=O)OC1(C)CCOc2c(S(=O)(=O)N[C@H](c3n[nH]c(=O)o3)[C@H](C)c3c(F)ccc(Br)c3C)ccc(Cl)c21 (some centres undefined) | 80 nM
28 | Cc1ccc(F)c([C@@H](C)[C@H](NS(=O)(=O)c2ccc(Cl)c3c2C(O)CCC3)c2n[nH]c(=O)o2)c1C (some centres undefined) | 910 nM
29 | Cc1ccc(F)c([C@@H](C)[C@H](NS(=O)(=O)c2ccc(Cl)c3cccnc23)c2n[nH]c(=O)o2)c1C | 110 nM
30 | Cc1ccc(F)c([C@@H](C)[C@H](NS(=O)(=O)c2ccc3[nH]c(=O)c(=O)[nH]c3c2)c2n[nH]c(=O)o2)c1C | 820 nM
31 | COc1c(S(=O)(=O)N[C@H](c2n[nH]c(=O)o2)[C@H](C)c2c(F)ccc(C)c2C)ncc(Cl)c1C(C)O (some centres undefined) | 200 nM
32 | Cc1ccc(F)c([C@@H](C)[C@H](NS(=O)(=O)c2ccc3c(c2)OCCO3)c2n[nH]c(=O)o2)c1C | 130 nM
33 | CC(=O)OC(C)c1nc(S(=O)(=O)N[C@H](c2n[nH]c(=O)o2)[C@H](C)c2cccc3c2CCC3)ccc1Cl (some centres undefined) | 210 nM
34 | Cc1ccc(F)c([C@@H](C)[C@H](NS(=O)(=O)c2cccc3c2OCCC3(O)C(F)(F)F)c2n[nH]c(=O)o2)c1C (some centres undefined) | 120 nM
35 | Cc1c(Br)ccc(F)c1[C@@H](C)[C@H](NS(=O)(=O)c1ccc(Cl)c2c1OCCC2=O)c1n[nH]c(=O)o1 | 90 nM
36 | COC(=O)c1cc(Br)cnc1S(=O)(=O)N[C@H](c1n[nH]c(=O)o1)[C@H](C)c1c(F)ccc(C)c1C | 450 nM
37 | Cc1ccc(F)c([C@@H](C)[C@H](NS(=O)(=O)c2ccc(Cl)c(-c3nnn[nH]3)c2)c2n[nH]c(=O)o2)c1C | 280 nM
38 | COc1c(S(=O)(=O)N[C@H](c2n[nH]c(=O)o2)[C@H](C)c2c(F)ccc(C)c2C)ccc(Cl)c1C(C)(C)O | 110 nM
39 | COC(=O)c1cc(Cl)cnc1S(=O)(=O)N[C@H](c1n[nH]c(=O)o1)[C@H](C)c1c(F)ccc(C)c1C | 340 nM
40 | Cc1ccc(F)c([C@@H](C)[C@H](NS(=O)(=O)c2ccc(Cl)cc2C(=O)N2CCC2)c2n[nH]c(=O)o2)c1C | 410 nM
41 | C[C@H](c1cccc2c1CCC2)[C@H](NS(=O)(=O)c1ccc(Cl)c(C(C)(C)O)n1)c1n[nH]c(=O)o1 | 440 nM
42 | CNC(=O)c1cc(Br)cnc1S(=O)(=O)N[C@H](c1n[nH]c(=O)o1)[C@H](C)c1c(F)ccc(C)c1C | 250 nM
43 | COc1c(S(=O)(=O)N[C@H](c2n[nH]c(=O)o2)[C@H](C)c2cccc(C)c2C)ccc(Cl)c1C(C)O (some centres undefined) | 180 nM
44 | CCc1ccc(F)c([C@@H](C)[C@H](NS(=O)(=O)c2ccc(Cl)c(C(C)O)c2OC)c2n[nH]c(=O)o2)c1C (some centres undefined) | 150 nM
45 | CC(=O)NC1CCOc2c(S(=O)(=O)N[C@H](c3n[nH]c(=O)o3)[C@H](C)c3c(F)ccc(C)c3C)ccc(Cl)c21 (some centres undefined) | 100 nM
46 | Cc1ccc(F)c([C@@H](C)[C@H](NS(=O)(=O)c2ccc(Cl)c(S(N)(=O)=O)c2)c2n[nH]c(=O)o2)c1C | 810 nM
47 | Cc1ccc(F)c([C@@H](C)[C@H](NS(=O)(=O)c2cc3c(cc2C(=O)O)OCCO3)c2n[nH]c(=O)o2)c1C | 790 nM
48 | CC(=O)c1cc(Cl)ccc1S(=O)(=O)N[C@H](c1n[nH]c(=O)o1)[C@H](C)c1c(F)ccc(C)c1C | 270 nM
49 | COC(=O)c1c(F)ccc(S(=O)(=O)N[C@H](c2n[nH]c(=O)o2)[C@H](C)c2c(F)ccc(C)c2C)c1F | 170 nM
50 | Cc1ccc(F)c([C@@H](C)[C@H](NS(=O)(=O)c2cccc3[nH]ccc23)c2n[nH]c(=O)o2)c1C | 710 nM

Row | SMILES | IC50
51 | COc1c(S(=O)(=O)N[C@H](c2n[nH]c(=O)o2)[C@H](C)c2c(F)ccc(C)c2C)ncc(Cl)c1C(C)OC(C)=O (some centres undefined) | 430 nM
52 | Cc1ccc(F)c([C@@H](C)[C@H](NS(=O)(=O)c2cc(C(C)(C)O)c(F)cc2C(N)=O)c2n[nH]c(=O)o2)c1C | 80 nM
53 | COc1c(S(=O)(=O)N[C@H](c2n[nH]c(=O)o2)[C@H](C)c2c(F)ccc3ccccc23)ccc(Cl)c1C(C)O (some centres undefined) | 80 nM
54 | Cc1ccc(F)c([C@@H](C)[C@H](NS(=O)(=O)c2ccc(Cl)s2)c2n[nH]c(=O)o2)c1C | 450 nM
55 | Cc1ccc(F)c([C@@H](C)[C@H](NS(=O)(=O)c2ncc(Cl)cc2C(=O)O)c2n[nH]c(=O)o2)c1C | 500 nM
56 | Cc1ccc(F)c([C@@H](C)[C@H](NS(=O)(=O)c2cc(C(C)(C)O)ccc2C(N)=O)c2n[nH]c(=O)o2)c1C | 60 nM
57 | Cc1ccc(F)c([C@@H](C)[C@H](NS(=O)(=O)c2cc(F)c(Cl)cc2C(=O)O)c2n[nH]c(=O)o2)c1C | 960 nM
58 | Cc1ccc(S(=O)(=O)N[C@H](c2n[nH]c(=O)o2)[C@H](C)c2c(F)ccc(C)c2C)cc1S(=O)(=O)N1CCCCC1 | 470 nM
59 | Cc1ccc(F)c([C@@H](C)[C@H](NS(=O)(=O)c2ccc3c(c2)N(C)CCC3)c2n[nH]c(=O)o2)c1C | 220 nM
60 | Cc1ccc(F)c([C@@H](C)[C@H](NS(=O)(=O)c2ccc3c(c2)C(C)(O)CCO3)c2n[nH]c(=O)o2)c1C (some centres undefined) | 180 nM
61 | COc1nc(Cl)ccc1S(=O)(=O)N[C@H](c1n[nH]c(=O)o1)[C@H](C)c1c(F)ccc(C)c1C | 100 nM
62 | Cc1ccc(F)c([C@@H](C)[C@H](NS(=O)(=O)c2ccc(Cl)cc2C(=O)NCCO)c2n[nH]c(=O)o2)c1C | 270 nM
63 | Cc1c(Cl)ccc(F)c1[C@@H](C)[C@H](NS(=O)(=O)c1ncc(Cl)cc1C(N)=O)c1n[nH]c(=O)o1 | 100 nM
64 | COc1cc(Br)ccc1S(=O)(=O)N[C@H](c1n[nH]c(=O)o1)[C@H](C)c1cccc2c1CCC2 | 590 nM
65 | Cc1ccc(F)c([C@@H](C)[C@H](NS(=O)(=O)c2ccc(Cl)c(C(=O)N3CCC4(CC3)COC4)n2)c2n[nH]c(=O)o2)c1C | 80 nM
66 | Cc1ccc(F)c([C@@H](C)[C@H](NS(=O)(=O)c2ncc(Br)cc2C(N)=O)c2n[nH]c(=O)o2)c1C | 20 nM
67 | Cc1ccc(F)c([C@@H](C)[C@H](NS(=O)(=O)c2c(F)cc(F)c3c2OCCC3O)c2n[nH]c(=O)o2)c1C (some centres undefined) | 230 nM
68 | CC(=O)OC1(C(F)(F)F)CCOc2c(S(=O)(=O)N[C@H](c3n[nH]c(=O)o3)[C@H](C)c3c(F)ccc(C)c3C)ccc(Cl)c21 (some centres undefined) | 110 nM
69 | Cc1ccc(F)c([C@@H](C)[C@H](NS(=O)(=O)c2ccc(Cl)cc2C(=O)O)c2n[nH]c(=O)o2)c1C | 180 nM
70 | Cc1ccc(F)c([C@@H](C)[C@H](NS(=O)(=O)c2ccc3c(c2)C(=O)CCO3)c2n[nH]c(=O)o2)c1C | 280 nM
71 | CNC(=O)c1nc(S(=O)(=O)N[C@H](c2n[nH]c(=O)o2)[C@H](C)c2c(F)ccc(C)c2C)ccc1Cl | 60 nM
72 | COc1c(S(=O)(=O)N[C@H](c2n[nH]c(=O)o2)[C@H](C)c2c(F)ccc(C)c2C)ccc(Cl)c1C(C)OC(C)=O (some centres undefined) | 170 nM
73 | Cc1ccc(F)c([C@@H](C)[C@H](NS(=O)(=O)c2ccc(F)c(S(C)(=O)=O)c2)c2n[nH]c(=O)o2)c1C | 190 nM
74 | Cc1ccc(F)c([C@@H](C)[C@H](NS(=O)(=O)c2ccc(Cl)cc2OC(F)F)c2n[nH]c(=O)o2)c1C | 260 nM
